According to patent US7700619B2, “2-methoxymethyl-3-(3,4-dichlorophenyl)-8-azabicyclo[3.2.1]octane tartrate salts” (Neurosearch A/S, priority 2003, dated 2010):

Test: Physical stability of the polymorphic form on repeated preparation
Assay type: physicochemical
Conditions: successive preparations of Form IV turned out as mixtures of Form IV and Form III
Experimental: The form was prepared by suspending a freshly prepared Form II in water free ethanol. Separation of the suspended matter was conducted after 24 hours and subsequent drying under vacuum.
Form IV can also be obtained from suspension of Form III by the same procedure as described using Form II.
Successive preparations of Form IV turned out as mixtures of Form IV and Form III, indicating difficulties in producing Form IV

SMILES: COC[C@@H]1[C@@H](c2ccc(Cl)c(Cl)c2)C[C@@H]2CC[C@H]1N2.O=C(O)C(O)C(O)C(=O)O [Form IV, (1R,2R,3S,5S)-2-methoxymethyl-3-(3,4-dichlorophenyl)-8-azabicyclo[3.2.1]octane L-tartrate anhydrate (Form IV)]
- physical stability of the crystal form: physically metastable
